Results reported in patent publication US6517812B1, “Inhibition of psychostimulant-induced and nicotine-induced craving” (The General Hospital Corporation, priority 1997, dated 2003).
Where “and” joins values, the source holds several entries; their conditions need not be identical. Equal values may be shown once. Read-outs that look alike come from different tables or passages of the source.

Experiments:
Format in all cases: in vivo
[1] = Plasma cocaine levels after IV infusion (liquid chromatography with photodiode array detection); conditions: human, 0.6 mg/kg IV; for Cmax: plasma, iv
Experimental: Sequential 4 ml venous blood samples were collected immediately before and at 1, 3, 5, 10, 15, 30, 60, 90 and 120 minutes following each infusion. The 120 minute sample for the first infusion was also the pre-infusion sample for the second infusion.
Plasma/Urine Levels: Cocaine quantitative assays were performed by the MGH Clinical Chemistry Laboratory using a liquid chromatography with photodiode array detection method they developed (Puopolo et al., 1992, Clin. Chem. 38:1838-1842), with minor modifications (flow rate increased from 2.0 to 2.6 ml/minute and LCPCN column length increased from 150 to 250 mm). Intra-assay imprecision at […] for cocaine is 5.1%, 5.7% and 6.6% respectively.

rat brain regions = test: CBV-weighted fMRI with MION contrast in rat after IV cocaine
[2] = system: cocaine-dependent volunteers; test: Behavioral ratings of rush, high, low and craving (integer scale 0 to 3) after cocaine infusion; conditions: human
Description: During FAIR and BOLD infusion scans, behavioral measures of rush, high, low, and craving were obtained in a continuous sequence each minute. Thus, over each 15 second epoch, one rating scale would be projected for the subject's response. Given four scales, it took one minute to cycle through the complete set of scales. Timing of scan initiation, infusion onset and offset, and scan completion were linked with ongoing behavioral reports to allow subsequent correlational analysis between behavioral ratings and fMRI acquisitions. Behavioral responses were acquired with a four-button button-press which had been adapted to the magnet environment by construction with non-magnetic components and filtering of its output at the Faraday shield.
To obtain meaningful behavioral ratings during scanning, subjects were trained beforehand. The day before scanning, subjects were interviewed in depth by one of two board-certified psychiatrists to fully describe their experience of cocaine intake. These descriptions were then categorized by the psychiatrist and subject into four components: the rush, high, low, and craving which were to be rated on an integer scale of 0 (none) to 3 (maximum). The individualized conventions for description of subjective responses were then tested, during the unblinded pre-infusion with 0.2 mg/kg cocaine, on a portable computer with a program simulating that used in the MRI.
Of the four behavioral measures, only craving was defined operationally in terms of the action the individual wanted to engage in (to get more cocaine). The other three behavioral measures, rush, high, and low, were defined in terms of subjective feelings which were not necessarily associated with a behavioral output, or associated with the planning and implementation of physical activity. Thus, by definition, only craving was defined as a motivational state. In general, rush experiences involved physical sensations of elevated heart rate and sweating, along with internal feelings variously characterized as ‘speeding’ sensations and sensations of ‘being out-of-control’. In contrast, the high experience was generally associated with feelings of self-confidence, well-being, and sociability. The low experience encompassed all negative subjective feelings potentially associated with cocaine use such as anxiety, paranoia, dysphoria, or anhedonia; the majority of subjects in this study discussed the low in terms of dysphoric affect distinct from a diminishment in the high experience.
Behavioral Data: The integer output for each behavioral rating was segregated by category of rush, high, low, and craving. For the group data in FIG. 2, the 18 measures for each behavioral category obtained during the 18 minute BOLD infusion scan were averaged for the 9 subjects with both interpretable behavioral data and fMRI data. This averaged data was then utilized in the correlational analysis of the cocaine fMRI data.

[3] = system: cocaine-dependent volunteers; test: Physiological monitoring (HR, MBP, ETCO2, ECG) after double-blind IV cocaine infusion; conditions: human
Experimental: Subjects were admitted to the MGH GCRC for the screening procedures; those meeting all criteria were boarded overnight on the unit in preparation for imaging the following day. The following morning the subject had bilateral intravenous catheters placed (right forearm for cocaine or saline infusion, left forearm for serial venous blood sampling for quantitative cocaine levels). Scanning was performed between 11AM and 3PM during which the subject was in the scanner for two periods of time each lasting from 45 to 90 minutes. During each scanning period, one infusion was given, either cocaine (0.6 mg/kg, maximum dose 40 mg) or saline (both in a volume of 10 cc given over 30 seconds IV) in a randomized, double blind order. Five different scans were performed during each period. The infusion itself was made 5 minutes into an 18 minute long blood oxygen level dependent (BOLD) scan. The BOLD infusion scan was bracketed by flow-sensitive alternating inversion recovery (FAIR) and visual stimulation BOLD scans (the data from these scans were used to delineate the global vs. regional signal changes from cocaine). The time interval between functional scans within a period was kept to a minimum. The entire sequence of 5 functional scans was completed within 45-60 minutes. The subject was removed from the scanner for a 15-30 minute rest and then was returned to magnet and the sequence was repeated for the second infusion. A minimum of two hours had to pass between each double-blind infusion.
Physiologic monitoring was conducted using an In Vivo OmniTrak 3100 patient monitoring system (Orlando, Fla.) modified to permit on-line computer acquisition of physiologic measurements. Each subject was fitted with chest leads to record the electrocardiogram (ECG) and to measure heart rate (HR), a nasal cannula to measure respiratory rate and end-expiratory carbon dioxide (ETCO2), and a blood pressure cuff to measure non-invasively systemic mean blood pressure (MBP). The temporal resolution of the system for sampling blood pressure was once every two minutes.
Precautions taken to ensure safe conduct of the study included use of ACLS trained personnel, frequent running of mock codes with clocked performance of tasks and strict definition of individual tasks, and presence of a cardiologist at the time of all infusions whose sole responsibility was to monitor subject safety. Before and after completion of both infusions, subjects underwent a 12-lead ECG to determine the absence of any interval change from the experiments. Because of magnetohydrodynamic effects on the ECG tracing, a baseline rhythm strip was obtained prior to each drug infusion and all subsequent tracings were compared to that one.
Physiological Data: The data analysis and graphing program IGOR (WaveMetrics, Inc.) was used to analyze the data. Data were first analyzed by a 2 way ANOVA with drug treatment (saline, cocaine) and time of measurement as factors. When significant F values were obtained for one of the physiologic measures, individual time points were compared by post-hoc t-tests to determine if (and at what times) the change from baseline was significant. The Bonferroni correction for multiple comparisons was used; the criteria for significance at the 0.05 level was p<0.007.

[4] = rat frontal cortex, cocaine 0.5 mg/kg IV
[5] = 0.6 mg/kg IV blinded, scale 0-3
[6] = 0.6 mg/kg IV, post-infusion, 0.6 mg/kg

## COC(=O)[C@H]1[C@@H](OC(=O)c2ccccc2)C[C@@H]2CC[C@H]1N2C [cocaine]
[1]; 4 subjects with re-test experiments
  time to peak cocaine plasma concentration, mean±SD: 6.0 ± 2.9 min
[1]; initial series of experiments, 0.6 mg/kg
  time to peak cocaine plasma concentration, mean±SD: 7.6 ± 4.2 min and ~7 min
[1]; 0.6 mg/kg, n=7, range over subjects, read-out: Peak plasma cocaine levels (Cmax), range
  Cmax: 197 to 893 ng/mL
[1]; 0.6 mg/kg, n=7 subjects with complete data, read-out: Peak plasma cocaine levels (Cmax), mean
  Cmax: 389 ± 233 ng/mL
Rat brain regions; [4]
  maximum increase of cortical CBV over baseline: 32%
  time to peak CBV: approximately 3.5 minutes
Rat brain regions; rat frontal cortex, cocaine 0.5 mg/kg IV, post infusion
  time of return of CBV to baseline: ≤ 25 min
Rat brain regions; rat, after initiation of 0.5 mg/kg cocaine infusion
  time to maximum CBV change, all cortical and subcortical regions: 3 to 6 min
Rat brain regions; rat, cocaine 0.5 mg/kg IV
  increase in CBV at peak, agranular lateral frontal neocortex: ~30%
  increase in CBV at peak, agranular medial frontal neocortex: approximately 40%
Rat brain regions; rat, cocaine 0.5 mg/kg IV, p<0.005
  average CBV response of four subcortical regions relative to five frontal and parietal cortical regions: 45%
[2]; 0.2 mg/kg IV, unblinded
  craving rating: 1.0±1.3
  high rating: 1.7±1.2
  low rating: 0.8±0.8
  rush rating: 1.2±1.1
[2]; [5]
  peak craving rating: 1.3±0.9
  peak high rating: 2.1±0.8
  peak low rating: 0.9±0.8
  peak rush rating (mean±SD): 2.2±1.1
[2]; 0.6 mg/kg IV, post-infusion
  time of peak high: 3 min
  time of peak rush: 3 min
[2]; [6]
  time of peak craving: 12 min and 11 to 12 min
  time of peak low: 11 min and 11 to 12 min
[2]; retest infusion, four subjects
  craving rating: 1.0±1.2
  high rating: 2.3±0.5
  low rating: 1.0±0.8
  rush rating: 1.8±1.0
[3]; all subjects throughout the study
  cardiac rhythm (ECG): Normal sinus rhythm
[3]; cocaine 0.6 mg/kg IV
  time for HR, MBP and ETCO2 to return to baseline: ≤ 2 h
[3]; cocaine 0.6 mg/kg IV over 30 seconds, n=17, 2 minutes post-infusion
  heart rate (HR): 79±16 bpm
[3]; cocaine 0.6 mg/kg IV, 2 minutes post-infusion
  mean blood pressure (MBP): 101±12 torr
[3]; cocaine 0.6 mg/kg IV, 5 minutes
  mean blood pressure (MBP): 111±15 torr
[3]; cocaine 0.6 mg/kg IV, by 10 minutes
  end-tidal carbon dioxide (ETCO2): 36±4 mm Hg
[3]; cocaine 0.6 mg/kg IV, n=17, 5 minutes post infusion
  heart rate (HR): 82±12 bpm
[3]; cocaine 0.6 mg/kg IV, n=17, 10 minutes post infusion
  heart rate (HR): 93±14 bpm
